Activity calls are given as the source filed them. The rule behind the calls is not given here.
Key:
[1] = system: Plasmodium falciparum; test: Antimalarial activity against Plasmodium falciparum at 10 ug/ml; type: functional, organism-based
[2] = system: Vibrio harveyi; test: Inhibition of bioluminescence in wild type Vibrio harveyi BB120 by quorum sensing assay; type: functional, organism-based, Vibrio harveyi ATCC BAA-1116
[3] = system: Plasmodium falciparum; test: Antimalarial activity against Plasmodium falciparum; type: functional, organism-based

| IC50 [2] | IC50 [3] | SMILES | Activity [1] |
| --- | --- | --- | --- |
| 62 µM |  | CCCCCCCCC(C)[C@H](OC(C)=O)[C@H](C)C(=O)N1CCC[C@H]1C(=O)O (stereo partly drawn) [TUMONOIC ACID F] | inactive |
|  |  | CCCCCCC/C=C(\C)[C@@H](O)[C@@H](C)C(=O)N1CCC[C@H]1C(=O)O | inactive |
|  |  | CCCCCCCC[C@H](C)C(=O)N1CCC[C@H]1C(=O)O[C@@H](C(=O)O[C@H](C(=O)O)C(C)C)C(C)C | inactive |
|  | 2 µM | CCCC[C@H](C)C[C@H](C)C(=O)N1CCC[C@H]1C(=O)O[C@@H](C(=O)O[C@H](C(=O)O)[C@@H](C)CC)[C@@H](C)CC [TUMONOIC ACID I] |  |
|  |  | CCCCCCCC[C@H](C)C(=O)N1CCC[C@H]1C(=O)O[C@@H](C(=O)O[C@@H](C)C(=O)O)[C@@H](C)CC | inactive |
|  |  | CCCCCCCC[C@H](C)C(=O)N1CCC[C@H]1C(=O)O | inactive |
|  |  | CCCCC(C)/C=C(\C)[C@H](O)[C@H](C)C(=O)N1CCC[C@H]1C(=O)O (stereo partly drawn) | inactive |
